The values that follow come from patent US20250057859A1, “CANNABICHROMENEQUINONE AND ANALOGUES THEREOF, AND METHOD OF USING COMPOSITIONS THEREOF AS ANTI-INFLAMMATORY AGENTS” (Juva Life, Inc., priority 2021, published 2025).

Each structure is given as a SMILES string.

In series [1] the target is T1, cannabinoid receptor 1 (CNR1) (Homo sapiens, UniProt P21554).
T1 construct: host or cells: CHO-K1
Put plainly: CB1 receptor agonist assay (cAMP Hunter eXpress, CNR1 CHO-K1). The series is classed as cell-based. As to conditions: Forskolin-stimulated CNR1 CHO-K1. As to the method:
(§1) The assays were performed in cAMP Hunter eXpress cells engineered to overexpress naturally Gi/Go-coupled wildtype cannabinoid receptor 1 (CNR1) or cannabinoid receptor 2 (CNR2) in CHO-K1 cell type. In these cells, CB1 and/or CB2 agonists inhibit production of intracellular cAMP in response to stimulation with Forskolin. cAMP levels are determined using luminogenic detection reagents provided with the Hunter eXpress cAMP detection kit.
(§2) • Assay ready CNR1 CHO-K1 cells were obtained from Eurofins/Discover X, cat #95-0071E2 • Assay ready CNR2 CHO-K1 cells were obtained from Eurofins/Discover X, cat #95-0183E2 • Hunter eXpress cAMP detection kit was also from Discover X. The kit includes all cAMP detection reagents, Forskolin, complete cell plating medium and cell assay buffer.
(§3) The Assay-Ready CNR1 CHO-K1 or CNR2 CHO-K1 cells were thawed and re-suspended in pre-warmed Assay Complete plating medium and inoculated into 96well plate at a density of 30,000 cells in 100 μL. The plates with cells were incubated for 24 h at 37° C. in 5% CO2. […] The cells were stimulated with the Forskolin/compound buffer for 30 min. […] The plate was read on Biotek Synergy Neo2 reader in luminescent mode. […] Relative luminescence units (RLUs) were plotted against compound concentration to determine apparent EC50 values of the agonist compounds.

In series [2] the target is T2, cannabinoid receptor 2 (CNR2) (Homo sapiens, UniProt P34972).
T2 construct: host or cells: CHO-K1
Put plainly: CB2 receptor agonist assay (cAMP Hunter eXpress, CNR2 CHO-K1). The series is classed as cell-based. As to the method:
as §1, §2, §3

The nature of series [3]: SK-MEL-28 cell line toxicity (Cell titer Glo viability). The series is classed as cell-based. Particulars: human, SK-MEL-28 melanoma cells, 72 h. As to the method: (§4) Culture medium were purchased from ATCC, USA.
(§5) 90 nL DMSO is added to control wells. […] Luminescence was then recorded using Synergy Neo2Multi-mode Reader.

Series [4] relates to SK-MEL-28 melanoma cell line. The description is as above. The series is classed as cell-based. As to conditions: Homo sapiens, SK-MEL-28, 72 h. On the procedure:
as §4, §5

A short description of series [5]: PC3 cell line toxicity (Cell titer Glo viability). The series is classed as cell-based. As to conditions: human, PC3 prostate adenocarcinoma cells, 72 h. On the procedure:
as §5, §4
(In ATP-based viability assays light output follows the ATP content of the culture.)

For series [6], the system named is PC3 prostate adenocarcinoma cell line. In words: PC3 cell line toxicity (Cell titer Glo viability). Format: cell-based. Particulars: Homo sapiens, PC-3; PC3, 72 h. As to the method:
as §5, §4

A further series can be described thus: in vitro. Particulars: human. On the procedure: The half maximal inhibition concentration (IC50) for each compound was determined by harvesting cells during the logarithmic growth period and then counting cell number using hemocytometer. […] Then, using a Biomek FX, test articles were serially diluted (10 mM top, 3× dilution intervals) along with a reference inhibitor (1 mM top, 3× dilution intervals) in acoustic grade Labcyte plate. Then, using an acoustic dispenser (Labcyte550), compounds were added as serially diluted to plate with cells: 90 nL of serially diluted compounds per well. 90 nL DMSO is added to control wells. Test plates were incubated for 72 h in the humidified incubator at 37° C. with 5% CO2. 25 μL of reconstituted Cell titer Glo reagent was added to each well. Each test plate was then incubated for 20 min at room temperature. Luminescence was then recorded using Synergy Neo2Multi-mode Reader.
In order to calculate intersect IC50, a dose-response curve was fitted using nonlinear regression model with a sigmoidal dose response.
The formula for calculating surviving rate is shown below, and the intersect IC50 was calculated according to the dose-response curve generated by the software:
The compounds of interest were assessed cell viability in the HL-60 acute promyelocytic leukemia cell line (ATCC® CCL-240). […] Culture medium were purchased from ATCC, USA.

T2 sequence (P34972 whole entry): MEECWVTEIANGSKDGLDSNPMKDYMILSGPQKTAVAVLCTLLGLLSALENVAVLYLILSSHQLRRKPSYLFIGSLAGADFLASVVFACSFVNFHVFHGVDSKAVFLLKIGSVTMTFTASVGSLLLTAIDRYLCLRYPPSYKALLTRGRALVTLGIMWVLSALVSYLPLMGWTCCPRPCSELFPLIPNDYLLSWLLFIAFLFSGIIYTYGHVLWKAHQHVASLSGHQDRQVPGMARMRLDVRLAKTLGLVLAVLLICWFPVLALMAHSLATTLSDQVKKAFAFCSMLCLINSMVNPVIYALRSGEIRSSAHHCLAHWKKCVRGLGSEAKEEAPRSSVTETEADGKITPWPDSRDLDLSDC
T1 sequence (P21554 whole entry): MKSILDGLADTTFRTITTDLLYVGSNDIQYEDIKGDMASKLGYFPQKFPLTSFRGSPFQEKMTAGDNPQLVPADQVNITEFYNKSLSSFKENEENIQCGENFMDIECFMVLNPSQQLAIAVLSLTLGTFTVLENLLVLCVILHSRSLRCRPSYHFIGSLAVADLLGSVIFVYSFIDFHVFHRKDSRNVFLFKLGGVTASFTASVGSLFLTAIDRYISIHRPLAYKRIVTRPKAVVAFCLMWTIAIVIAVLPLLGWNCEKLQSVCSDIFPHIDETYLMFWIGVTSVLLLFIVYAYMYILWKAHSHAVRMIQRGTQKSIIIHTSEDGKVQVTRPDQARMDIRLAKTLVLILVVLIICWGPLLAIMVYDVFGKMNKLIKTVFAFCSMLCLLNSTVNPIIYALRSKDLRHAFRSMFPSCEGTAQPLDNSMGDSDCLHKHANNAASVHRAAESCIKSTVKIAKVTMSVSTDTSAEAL

What is called EC50 is the concentration that produces a half-maximal response. For the compound `CCCCCc1cc(O)c2c(c1)OC(C)(C)C1CCC(CO)=CC21` (centres unmarked) [11-hydroxy-THC], the EC50 in series [1] was 1 nM; in series [2] (agonist, cAMP, Forskolin-stimulated CNR2 CHO-K1), 51 nM. For the same compound, the “Selectivity for CB2 over CB1” value in series [2] (ratio of EC50 values) came to 0.02 fold.
In general, viability refers to a read-out of living cells in per cent, often relative to untreated cells. Broadly, the IC50 is the point on the concentration scale where inhibition reaches its midpoint. Regarding `CN[C@@H]1C[C@H]2O[C@@](C)([C@@H]1OC)n1c3ccccc3c3c4c(c5c6ccccc6n2c5c31)C(=O)NC4` [Staurosporine, staurosporine, reference compound], the viability at 72 h, 0.00017 µM in series [3] (SK-MEL-28, 0.00017 uM) came to 96.2%; in series [5] (PC3, 0.00017 uM), 102%. Further, the viability at 72 h, 0.00051 µM in series [3] (SK-MEL-28, 0.00051 uM) is 94.9%; in series [5] (PC3, 0.00051 uM), 92.2%. In addition, the viability at 72 h, 0.0015 µM in series [3] (SK-MEL-28, 0.0015 uM) was determined as 96.7%; in series [5] (PC3, 0.0015 uM), 67.1%. The viability at 72 h, 0.0046 µM was 94.1% in series [3] (SK-MEL-28, 0.0046 uM) and 43.2% in series [5] (PC3, 0.0046 uM). Further, the viability at 72 h, 0.014 µM in series [3] (SK-MEL-28, 0.014 uM) came out at 92.9%; in series [5] (PC3, 0.014 uM) it was 34.5%. The viability at 72 h, 0.041 µM in series [3] (SK-MEL-28, 0.041 uM) turned out to be 70%; in series [5] (PC3, 0.041 uM) it was 12.7%. Moreover, the viability at 72 h, 0.12 µM in series [3] (SK-MEL-28, 0.12 uM) is 53.9%; in series [5] (PC3, 0.12 uM), 10.3%. The viability at 72 h, 0.37 µM turned out to be 41.1% in series [3] (SK-MEL-28, 0.37 uM) and 9.5% in series [5] (PC3, 0.37 uM). Also, the viability at 72 h, 1.1 µM in series [3] (SK-MEL-28, 1.1 uM) turned out to be 33%; in series [5] (PC3, 1.1 uM), 8.4%. Also, the viability at 72 h, 3.3 µM in series [3] (SK-MEL-28, 3.3 uM) was 17.3%; in series [5] (PC3, 3.3 uM), 8.1%. Moreover, the viability at 72 h, 10 µM came to 8.55% in series [3] (SK-MEL-28, 10 uM) and 6.8% in series [5] (PC3, 10 uM). In addition, the viability at 72 h, 30 µM is 8.85% in series [3] (SK-MEL-28, 30 uM) and 7.1% in series [5] (PC3, 30 uM). The IC50 in series [4] was about 210 nM; in series [6] it was about 4 nM. Moreover, in the series “in vitro”, the viability at 0.00017 µM is 98.3%. In addition, the viability at 0.00051 µM in the series “in vitro” turned out to be 96.5%. Also, the viability at 0.0015 µM in the series “in vitro” worked out at 98.3%. Also, the viability at 0.0046 µM in “in vitro” was found to be 90.4%. Further, the viability at 0.014 µM in “in vitro” was found to be 66.6%. Further, in “in vitro”, the viability at 0.041 µM stood at 36.3%. The viability at 0.12 µM in “in vitro” is 27.7%. Further, the viability at 0.37 µM in “in vitro” is 18.7%. Further, the viability at 1.1 µM in “in vitro” turned out to be 13.9%. In addition, in “in vitro”, the viability at 3.3 µM came to 11.7%. Besides, the viability at 10 µM in the series “in vitro” is 10.4%. For the same compound, in “in vitro”, the viability at 30 µM worked out at 9.6%.
